Holding throughout (assay type): cell-based
For experiment [1], the system named is beneficial oral bacteria and pathogenic oral bacteria. Nature of the experiment: Twenty-four hour biofilm growth, overall prebiotic assessment. The source says: Substrates that were able to increase the biofilm mass of at least one of the above beneficial bacteria while not or only minimally increasing the biofilm mass of the pathogenic bacteria are considered to be prebiotic compounds.
(§1) The increase in biofilm formation of the tested bacteria in response to selected saccharides (D-turanose, D-lactitol, myo-inositol, and N-acetyl-D-mannosamine) was investigated by setting up biofilm growth assays in a nutritionally rich medium (brain heart infusion broth (BHI), Oxoid), over 24 hours. Late exponential growth phase liquid cultures were prepared by transferring the respective bacterium from blood agar plates to BHI and overnight incubation at 37° C. in an anaerobic atmosphere for A. viscosus, V. parvula, P. gingivalis, P. intermedia, T. forsythia, A. naeslundii, and C. sputigena, and in a 5% CO2 environment for S. salivarius, S. sanguinis, S. mitis, A. actinomycetemcomitans, S. mutans, and S. gordonii. Overnight cultures were transferred to BHI and adjusted to a concentration of 1×10^7 CFU/ml by measuring the optical density at 600 nm (OD600) (BioRad SmartSpec 3000). For each strain, 200 μl of the bacterial suspension was added to a 96-well plate containing 20 μl of the respective saccharides. Final concentrations of the saccharides were set to 5, 10, 20 and 25 μmol/ml. […] Additionally, for each bacterium tested, a background control, to correct for background staining, was added. This background control contained the bacterium tested and 0.03 weight % chlorhexidine, as an antiseptic. Plates were incubated as previously described. After 24 hrs the supernatant was removed from the wells of the plates. The wells were washed twice with 1×100 μL PBS (phosphate buffered saline), fixed for 20 minutes with 96% vol. ethanol (96% vol. solution in water) and the biofilm retained at the bottom of the wells was stained with 1 weight % crystal violet (1 weight % solution in water). The bound dye was dissolved with 5% vol. acetic acid (5% vol. solution in water). Quantification of the stained biofilm was performed by measuring the absorbance at 630 nm using a Multiskan Ascent microplate reader (Thermo Scientific).
The experiment was carried out on three different days (thus providing 3 biological replicas) and each day the experiment was carried out in quadruple (thus providing 4 technical replicas) for each combination of bacterium with saccharide and for each control. For each day and for each combination, the average (mean) of the values obtained (as detailed above) for the four technical replicas was calculated to provide a single value for each combination on each day. The values shown in Tables 7a, 7b, 8a, 8b, below, are the average (mean) of the three single values obtained for each combination of bacterium with saccharide. […]

The test system is the same in experiment [2]. The experiment in a line: Microarray screen, overall prebiotic assessment. The protocol:
Substrates that were able to increase the metabolic activity of at least one of the above beneficial bacteria while not or only minimally increasing the growth of the pathogenic bacteria are considered to be prebiotic substrates.
The extent of metabolic activity of the tested bacteria in the presence of the above-mentioned saccharides after 24 hours and 48 hours was investigated through a high throughput phenotype microarray system (PM) for microbial cells (Biolog Inc.). Each PM can contain up to 95 different biochemical compounds (e.g. saccharides) that may act as substrates for bacteria as well as one negative control, not containing the substrates. Microarray plates were used in which the different wells of each plate were pre-loaded (by the manufacturer, Biolog Inc.) with different saccharides to be tested. Each bacterial species was tested using a separate microarray plate. Thus, a single bacterial species was tested with a variety of saccharides on each particular plate. The microarrays are based on redox technology, using cell respiration as a universal reporter. Active cell respiration results in the reduction of a tetrazolium dye and in the formation of a strong color—for example, when using the tetrazolium dye “Biolog Redox Dye Mix D”, the color changes from transparent/colorless to purple when the dye is reduced. The observation of this color change indicates which of the substrates improve the metabolic activity and health of the cells.
Each bacterial species was collected from blood agar plates (incubated for 48 hours anaerobically at 37° C.) and transferred to an IF-0 Base inoculation fluid (Biolog Inc.), which is a nutritionally poor medium. The resulting cell suspension was adjusted to a transmittance of 42% (relative to the transmittance of the base inoculation fluid with no bacterial species present) at 492 nm using a BioRad SmartSpec 3000 Photometer (the adjustment being effected by adding either further inoculation fluid or further bacteria until the transmittance of 42% was achieved). A 1:5 dilution of this suspension was prepared by mixing 3 mL of the 42% transmittance cell suspension with 15 mL of an inoculation fluid (which inoculation fluid was formed by mixing 11.6 mL sterile water, 62.5 mL IF-0 base inoculation fluid and 0.9 mL of the tetrazolium dye “Biolog Redox Dye mix D”), resulting in a final cell density which was equal to 85% transmittance using a BioRad SmartSpec 3000 Photometer. For each of the saccharides tested, the microarray plate (obtained from the supplier (Biolog Inc.) with saccharides already present in the relevant wells in powder form) was directly inoculated with 100 μL/well of this 85% transmittance cell suspension.
All plates were incubated in an anaerobic atmosphere at 37° C. Color changes were measured spectrophotometrically at 492 nm (Thermo Scientific Multiskan Ascent) at 24 hrs and 48 hrs using the same plate at both time points. […] After 24 hrs and 48 hrs under continuous shaking in a Multiscan microplate reader, the optical density (OD) of the synthetic medium at 24 hours and 48 hours was measured (using the microplate reader) at a wavelength of 492 nm for each combination of bacterium/saccharide, and for each of their respective controls (i.e. which contained the particular bacterium but no saccharide).
The experiment was carried out three times for each combination of bacterium with saccharide, with each repeat being carried out on a different day (thus providing three biological replicas). The controls were also carried out three times, as above. The values shown are the average (mean) of the three single values obtained (as detailed above) for each combination of bacterium with saccharide, at 24 hrs and at 48 hrs.
This value was selected in order to exclude low-stimulating metabolites and avoid false positive results.

The next experiment relates to P. intermedia. The experiment in a line: Twenty-four hour biofilm growth (crystal violet). As to the method: as §1
(§2) The experiment was carried out on three different days (thus providing 3 biological replicas) and each day the experiment was carried out in quadruple (thus providing 4 technical replicas) for each combination of bacterium with saccharide and for each control. For each day and for each combination, the average (mean) of the values obtained (as detailed above) for the four technical replicas was calculated to provide a single value for each combination on each day. The values shown in Tables 7a, 7b, 8a, 8b, below, are the average (mean) of the three single values obtained for each combination of bacterium with saccharide.

For a further experiment, the system named is A. naeslundii. Nature of the experiment: Twenty-four hour biofilm growth (crystal violet). As to the method:
as §1, §2

In the next experiment the test system is V. parvula. Nature of the experiment: Twenty-four hour biofilm growth (crystal violet). The protocol:
as §1, §2

A further experiment has as its system P. gingivalis. The experiment in a line: Twenty-four hour biofilm growth (crystal violet). As to the method: as §1, §2
A further experiment concerns S. mutans. Nature of the experiment: Twenty-four hour biofilm growth (crystal violet). The note with it: S mutans. The protocol: as §1, §2
[3] abbreviates: concentrations of 5, 10, 20 and 25 μmol/ml.

In the case of `OC[C@H]1O[C@@](O)(CO)[C@@H](O[C@H]2O[C@H](CO)[C@@H](O)[C@H](O)[C@H]2O)[C@@H]1O` [D-Turanose, α-D-glucopyranosyl-(1→3)-α-D-fructofuranose], the “prebiotic effects (biofilm growth, threshold value 1.6)” value in experiment [1] (concentrations of 20 and 25 μmol/ml) is “exhibited prebiotic effects”. Moreover, the “prebiotic effects (metabolic activity, threshold value 2)” value in experiment [2] (24 hrs) is listed as “exhibited prebiotic effects”. For the same molecule, the “speed of metabolism by beneficial versus pathogenic bacteria (value of 2 reached at 24 hrs)” value in experiment [2] (24 hrs) is given as “metabolized faster by the beneficial bacteria than by the pathogenic bacteria”. Also, the “biofilm growth: OD 630 nm at 24 hrs divided by OD of control (control = 1)” value in the experiment with P. intermedia (5 μmol/ml) is recorded as 2.0059; in the experiment with P. intermedia (10 μmol/ml), 1.8143; in the experiment with P. intermedia (20 μmol/ml) it was 1.5017; in the experiment with P. intermedia (25 μmol/ml) it was 1.1725; in the experiment with A. naeslundii (5 μmol/ml), 1.5849; with A. naeslundii (10 μmol/ml), 1.4372. Further, the “biofilm growth: OD 630 nm at 24 hrs divided by OD of control (control = 1)” value with A. naeslundii (20 μmol/ml) is recorded as 1.4348; in the experiment on A. naeslundii (25 μmol/ml), 1.4411; in the experiment with V. parvula (5 μmol/ml), 1.2298; with V. parvula (10 μmol/ml), 1.3941; in the experiment with V. parvula (20 μmol/ml), 1.4942; in the experiment with V. parvula (25 μmol/ml) it was 1.3055. In addition, the “biofilm growth: OD 630 nm at 24 hrs divided by OD of control (control = 1)” value came out at 0.9121 in the experiment on P. gingivalis (5 μmol/ml); 0.8700 in the experiment with P. gingivalis (10 μmol/ml); 0.9602 with P. gingivalis (20 μmol/ml); 0.9613 with P. gingivalis (25 μmol/ml); 1.0356 with S. mutans (5 μmol/ml); 1.1168 in the experiment with S. mutans (10 μmol/ml). In addition, the “biofilm growth: OD 630 nm at 24 hrs divided by OD of control (control = 1)” value with S. mutans (20 μmol/ml) worked out at 1.1403; in the experiment on S. mutans (25 μmol/ml), 1.1529.

With `O[C@H]1[C@H](O)[C@@H](O)[C@H](O)[C@@H](O)[C@H]1O` [Myo-Inositol, (1R,2R,3S,4S,5R,6S)-cyclohexane-1,2,3,4,5,6-hexol], the “prebiotic effects (biofilm growth, threshold value 1.6)” value in experiment [1] (setting [3]) was “exhibited prebiotic effects”. In addition, the “prebiotic effects (metabolic activity, threshold value 2)” value in experiment [2] (24 hrs) and in experiment [2] (48 hrs) was “exhibited prebiotic effects” each time. Besides, the “biofilm growth: OD 630 nm at 24 hrs divided by OD of control (control = 1)” value is 1.1539 in the experiment on P. intermedia (5 μmol/ml); 1.2210 with P. intermedia (10 μmol/ml); 1.1660 in the experiment on P. intermedia (20 μmol/ml); 1.0417 in the experiment with P. intermedia (25 μmol/ml); 1.0309 in the experiment on A. naeslundii (5 μmol/ml); 1.0353 with A. naeslundii (10 μmol/ml). Besides, the “biofilm growth: OD 630 nm at 24 hrs divided by OD of control (control = 1)” value in the experiment on A. naeslundii (20 μmol/ml) is on record as 1.0270; in the experiment on A. naeslundii (25 μmol/ml) it was 1.0456; in the experiment on V. parvula (5 μmol/ml) it was 1.0021; with V. parvula (10 μmol/ml), 1.1121; in the experiment with V. parvula (20 μmol/ml) it was 1.0036; in the experiment with V. parvula (25 μmol/ml), 1.0399. In addition, the “biofilm growth: OD 630 nm at 24 hrs divided by OD of control (control = 1)” value stood at 0.9325 in the experiment on P. gingivalis (5 μmol/ml); 0.9657 in the experiment on P. gingivalis (10 μmol/ml); 0.9448 with P. gingivalis (20 μmol/ml); 1.0290 in the experiment on P. gingivalis (25 μmol/ml); 0.9177 in the experiment on S. mutans (5 μmol/ml); 1.0152 in the experiment with S. mutans (10 μmol/ml). Moreover, the “biofilm growth: OD 630 nm at 24 hrs divided by OD of control (control = 1)” value was 1.1995 in the experiment on S. mutans (20 μmol/ml) and 1.4107 in the experiment on S. mutans (25 μmol/ml).

As for `CC(=O)N[C@H](C=O)[C@@H](O)[C@H](O)[C@H](O)CO` [N-acetyl-D-mannosamine, 2-acetamido-2-deoxy-D-mannose], the “prebiotic effects (biofilm growth, threshold value 1.6)” value in experiment [1] (setting [3]) was “exhibited prebiotic effects”. Further, the “prebiotic effects (metabolic activity, threshold value 2)” value in experiment [2] (24 hrs) was “exhibited prebiotic effects”. The “speed of metabolism by beneficial versus pathogenic bacteria (value of 2 reached at 24 hrs)” value in experiment [2] (24 hrs) is “metabolized faster by the beneficial bacteria than by the pathogenic bacteria”. The “biofilm growth: OD 630 nm at 24 hrs divided by OD of control (control = 1)” value in the experiment with P. intermedia (5 μmol/ml) is 1.1437; in the experiment on P. intermedia (10 μmol/ml), 1.5179; in the experiment with P. intermedia (20 μmol/ml), 1.0689; with P. intermedia (25 μmol/ml) it was 1.2252; in the experiment on A. naeslundii (5 μmol/ml), 1.3056; in the experiment with A. naeslundii (10 μmol/ml), 1.4302. Also, the “biofilm growth: OD 630 nm at 24 hrs divided by OD of control (control = 1)” value in the experiment on A. naeslundii (20 μmol/ml) came to 1.1823; with A. naeslundii (25 μmol/ml), 1.2220; with V. parvula (5 μmol/ml), 0.3811; in the experiment with V. parvula (10 μmol/ml) it was 1.0958; in the experiment on V. parvula (20 μmol/ml), 0.1297; with V. parvula (25 μmol/ml), 0.3718. For the same molecule, the “biofilm growth: OD 630 nm at 24 hrs divided by OD of control (control = 1)” value in the experiment with P. gingivalis (5 μmol/ml) is recorded as 0.6683; in the experiment with P. gingivalis (10 μmol/ml), 0.8031; in the experiment on P. gingivalis (20 μmol/ml) it was 0.7270; in the experiment with P. gingivalis (25 μmol/ml) it was 0.8345; in the experiment on S. mutans (5 μmol/ml), 0.8572; in the experiment with S. mutans (10 μmol/ml) it was 0.8329. For the same molecule, the “biofilm growth: OD 630 nm at 24 hrs divided by OD of control (control = 1)” value in the experiment on S. mutans (20 μmol/ml) is reported as 0.7015; with S. mutans (25 μmol/ml), 0.6922.
